In patent publication US9199948B2, “1,3-benzoxazol-2(3H)-ones and their use as medicaments and cosmetics” (DR. AUGUST WOLFF GMBH & CO. KG ARZNEIMITTEL, priority 2012, dated 2015) one finds EC50 data, which are given here for two compounds.

The subject of the experiment is Arachidonoylethanolamide Transport (AEAT) in U937 cells. The experiment is described as follows: Cellular uptake of [3H]-AEA (inhibition of arachidonoylethanolamide transport, AEAT). It is filed as cell-based. Particulars: Homo sapiens, U-937, 100 nM AEA, 15 min pre-incubation, 15 min uptake at 37° C. As for the experimental part: C. Cellular Uptake of [^3H]-AEA
Human lymphoma U937 cells were grown in RPMI 1640 medium (Invitrogen, Basel, Switzerland) supplemented with 10% fetal bovine serum, […] fungizone (amphotericin B), 100 units/ml penicillin, 100 µg/ml streptomycin, and 2 mM L-glutamine (all from Invitrogen) and selected for the cellular AEA uptake assay. 2.5×10^6 cells were collected and suspended in 250 μl of RPMI 1640 medium (Invitrogen, Basel, Switzerland) at 37° C. using glass silanized vials. Cells were pre-incubated 15 min at 37° C. in presence of test compounds in a concentration range of 10^−11−10^−5 M or in presence of the same amount (5 μl) of vehicle control (DMSO). Then a mixture of 0.5 nM [^3H]-AEA (60 Ci/mmol) (American Radiolabeled Chemicals, Inc., San Louis, Mo., US) and 99.5 nM of nonradioactive AEA (Tocris Cookson Ltd., Bristol, UK) resulting in a final concentration of 100 nM AEA was added and samples were incubated at 37° C. for another 15 minutes. […] Radioactivity was measured using a Perkin Elmer 1450 Microbeta TRILUX liquid scintillation counter. Results were expressed as % of AEA uptake versus cells treated with solvent and the EC50 and IC50 values were calculated from the sigmoidal curves, which were generated using the GraphPad Prism 5.0 (GraphPad Software, San Diego, Calif., US).

pEC50: −log10 of the molar value.

In the case of `CCCCCCC/C=C/C=C/CNC(=O)c1ccc2oc(=O)[nH]c2c1` [Example 4], the pEC50 (as a rule, the negative decadic logarithm of the EC50, by convention in mol/L) is 6.84.
With `Cn1c(=O)oc2ccc(NC(=O)/C=C/C=C/CCc3ccccc3)cc21` [Example 10] the figure was 6.95.
